Reference: the OPERA property sets (Mansouri et al. 2018)

Conditions: not given
Molecule `CN1C(=O)CN=C(c2ccccc2F)c2cc([N+](=O)[O-])ccc21` has a melting point of 166 °C.
With `c1ccc(CCCCc2ccccc2)cc1` the boiling point was 317 °C and the melting point was 52.5 °C.
`c1cc2c3c(cccc3c1)CC2` showed a boiling point of 279 °C, a log10 Henry constant (atm·m³/mol) of -3.74 and a log10 Koa of 6.31. The log10 Koc (L/kg) was 3.59, the log10 biodegradation half-life (days) was 1.59 and the log10 vapour pressure (mmHg) was -2.67. For the same molecule, the melting point was 93.4 °C and the ready biodegradability was “not readily biodegradable”.
In the case of `CNC1=Nc2ccc(Cl)cc2C(c2ccccc2)=[N+]([O-])C1`, the melting point is reported as 236 °C.
Work on `CCOC(=O)C1(C)OC(=O)N(c2cc(Cl)cc(Cl)c2)C1=O` (stereo not given) yielded a log10 vapour pressure (mmHg) of -7.02 and a melting point of 113 °C.
`C1CO1` gave a boiling point of 10.6 °C, a log10 Henry constant (atm·m³/mol) of -3.83 and a log10 vapour pressure (mmHg) of 3.12. The melting point was -112 °C and the ready biodegradability was “readily biodegradable”.
`COc1cc(OC)nc(Sc2cccc(Cl)c2C(=O)[O][Na])n1` gave a log10 Koc (L/kg) of 1.15.
For `Cc1cccc(Cl)n1`, the boiling point was 184 °C.
In the case of `CCCOCC`, the boiling point is reported as 63.2 °C, the log10 vapour pressure (mmHg) is reported as 2.26 and the melting point is reported as -128 °C.
With `CCc1ccc(O)c(OC)c1` the boiling point was 236 °C and the melting point was -7 °C.
In the case of `FC(F)(F)C(F)(F)C(F)(F)C(F)(F)C(F)(F)C(F)(F)C(F)(F)F`, the boiling point is reported as 82.5 °C, the log10 vapour pressure (mmHg) is reported as 1.88 and the melting point is reported as -78 °C.
`CCC1CCC1` gave a boiling point of 70.8 °C and a melting point of -143 °C.
For `OC(c1ccc(F)cc1)(c1cncnc1)c1ccccc1Cl` (stereo not given), the melting point was 126 °C.
For `CNc1ccc(Cl)cc1`, the boiling point was 240 °C.
`O=c1cccccc1O` showed a melting point of 50.8 °C.
With `CCOCCc1ccc(OCCN=c2[nH]cnc(CC)c2Cl)c(C)c1C` the melting point was 70 °C.
With `Clc1ccc2c(c1)Oc1ccccc1O2` the log10 vapour pressure (mmHg) was -4.89 and the melting point was 88 °C.
Molecule `S=C(SC(=S)N1CCCCC1)N1CCCCC1` has a melting point of 110 °C.
Molecule `O=c1ccc2ccccc2[nH]1` has a melting point of 200 °C.
In the case of `COc1cc(Cl)c(Cl)c(Cl)c1OC`, the melting point is reported as 66 °C.
In the case of `O=[N+]([O-])c1c(F)c(F)c(F)c(F)c1F`, the boiling point is reported as 160 °C.
Work on `C=CCNC(N)=O` yielded a melting point of 85 °C.
`O=[N+]([O-])c1ccc(S(=O)(=O)O)c([N+](=O)[O-])c1` gave a melting point of 108 °C.
With `NCCCNCCCN` the melting point was -14 °C.
Molecule `Nc1ccc(-c2ccc(Cl)cc2)cc1` has a melting point of 134 °C.
In the case of `CCCCCC[Si](Cl)(CCCCCC)CCCCCC`, the ready biodegradability is reported as “not readily biodegradable”.
With `Cc1ccc(C(=O)c2csc(S(N)(=O)=O)c2)cc1` the melting point was 176 °C.
For `CCC(O)C(CC(C)N(C)C)(c1ccccc1)c1ccccc1` (stereo not given), the melting point was 127 °C.
For `COc1c2occc2cc2ccc(=O)oc12`, the melting point was 148 °C and the ready biodegradability was “not readily biodegradable”.
For `CCCCCC1C(=O)CCC1CC(=O)OC` (stereo not given), the melting point was -10 °C and the ready biodegradability was “readily biodegradable”.
With `Cc1c(Cl)c(Cl)c(Cl)c(Cl)c1Cl` the boiling point was 301 °C, the log10 Henry constant (atm·m³/mol) was -3.11 and the melting point was 225 °C.
`Cc1ccc2c(C)ccc(C(C)C)c2c1` gave a boiling point of 294 °C.
Molecule `CC1=CCC(O)(C(C)C)CC1` (stereo not given) has a boiling point of 209 °C.
In the case of `CC(C)CC(C)C(C)C` (stereo not given), the boiling point is reported as 131 °C, the log10 biodegradation half-life (days) is reported as 0.903 and the log10 vapour pressure (mmHg) is reported as 1.07. For the same molecule, the melting point was -128 °C.
`CC(=O)c1cc(C(C)C)ccc1C` gave a boiling point of 250 °C.
`CC1(C)C(=O)N(Br)C(=O)N1Cl` gave a melting point of 164 °C.
`Cc1ccc([N+](=O)[O-])c(C)c1` showed a boiling point of 247 °C, a log10 vapour pressure (mmHg) of -1.24 and a melting point of 9 °C.
With `CC(=O)CCCC(C)C` the boiling point was 167 °C.
Molecule `Cc1ncc(COP(=O)(O)O)c(C=O)c1O.O` has a melting point of 142 °C.
Molecule `CC(COc1ccc(Oc2ccccc2)cc1)Oc1ccccn1` (stereo not given) has a log10 vapour pressure (mmHg) of -5.66 and a melting point of 46 °C.
Molecule `CNCCc1ccccc1` has a boiling point of 206 °C.
In the case of `CCN1CCCC1CNC(=O)c1cc(S(=O)(=O)CC)c(N)cc1OC` (stereo not given), the melting point is reported as 126 °C.
`O=[N+]([O-])c1ccccc1-c1ccccc1` showed a boiling point of 320 °C and a melting point of 37.2 °C.
With `CCC(CC)CC(C)(C)C` the boiling point was 147 °C.
Work on `CN(C)C(=S)Cl` yielded a melting point of 42.5 °C.
With `CCCCCCC[C@H](C)O` the boiling point was 194 °C, the log10 vapour pressure (mmHg) was -1.17 and the melting point was -35.5 °C.
In the case of `NCCCC1OCC2(CO1)COC(CCCN)OC2` (stereo not given), the ready biodegradability is reported as “not readily biodegradable”.
`COP(=S)(OC)Oc1cc(Cl)c(I)cc1Cl` gave a log10 vapour pressure (mmHg) of -6.08 and a melting point of 72.5 °C.
With `CCC(N)(CO)CO` the melting point was 37.5 °C and the ready biodegradability was “not readily biodegradable”.
In the case of `CCOCOCC`, the boiling point is reported as 88 °C, the log10 vapour pressure (mmHg) is reported as 1.53 and the melting point is reported as -66.5 °C.
In the case of `CCCCCC(=O)OCC(COC(=O)CCCCC)OC(=O)CCCCC`, the melting point is reported as -60 °C.
Work on `c1ccc(Cc2cccc3ccccc23)cc1` yielded a boiling point of 350 °C and a melting point of 59.5 °C.
Molecule `Oc1ccc(Oc2ccccc2)cc1` has a melting point of 84 °C.
Molecule `Cc1n[nH]c(C)c1Cl` has a boiling point of 221 °C and a melting point of 118 °C.
Work on `CCC1(C)OC(=O)NC1=O` (stereo not given) yielded a melting point of 46 °C.
Molecule `CC(C)(S)[C@@H](N)C(=O)O` has a melting point of 198 °C.
Molecule `CNC(=O)Oc1ccc(C)c(C)c1` has a log10 vapour pressure (mmHg) of -3.24 and a melting point of 79.5 °C.
`CC(C)CCC#N` showed a boiling point of 156 °C and a melting point of -51 °C.
In the case of `O=C(c1ccccc1)c1ccc(O)cc1O`, the melting point is reported as 144 °C and the ready biodegradability is reported as “not readily biodegradable”.
For `CCOC(=O)C=C(C)C(=O)OCC`, the boiling point was 228 °C.
`CN(C)C(=O)Nc1ccc(F)cc1` showed a log10 Koc (L/kg) of 1.43.
`O=Cc1ccc(Br)cc1` gave a melting point of 67 °C.
In the case of `C=CC/C=C/C/C=C/C/C=C/C`, the ready biodegradability is reported as “not readily biodegradable”.
`Clc1ccc(Oc2ccccc2Cl)c(Cl)c1` showed a log10 vapour pressure (mmHg) of -3.73.
In the case of `CCCC#CCCC`, the boiling point is reported as 132 °C, the log10 vapour pressure (mmHg) is reported as 0.985 and the melting point is reported as -101 °C.
In the case of `Clc1c(Cl)c(Cl)c(Cl)c(Cl)c1Cl`, the boiling point is reported as 325 °C, the log10 Henry constant (atm·m³/mol) is reported as -2.77 and the log10 Koa is reported as 7.38. It also gave a log10 Koc (L/kg) of 3.74, a log10 vapour pressure (mmHg) of -4.74 and a melting point of 232 °C. For the same molecule, the ready biodegradability was “not readily biodegradable”.
Molecule `CCCCCCN(CCCCCC)C(=O)COC(=O)c1ccccc1` has a melting point of 162 °C.
Work on `CC(=O)C1CC1` yielded a boiling point of 111 °C, a log10 Henry constant (atm·m³/mol) of -4.99 and a melting point of -68.3 °C.
`C1=COCCO1` showed a boiling point of 94.1 °C.
`CC(C)(C)c1ccc(O)c(O)c1` gave a boiling point of 285 °C and a melting point of 54.3 °C.
With `O=C(O)c1ccc(O)c(O)c1O` the melting point was 221 °C.
`CC1=C(CC(=O)O)c2cc(F)ccc2/C1=C\c1ccc(S(C)=O)cc1` (stereo not given) showed a melting point of 183 °C.
With `Cc1ccc(C(=O)O)c(C)c1` the boiling point was 268 °C and the melting point was 90 °C.
Work on `Cc1c(C)c(C)c(C(=O)O)c(C)c1C` yielded a melting point of 210 °C.
For `CNC(C)Cc1ccc(O)cc1` (stereo not given), the melting point was 161 °C.
With `Cc1cc(=O)c2ccccc2[nH]1` the melting point was 234 °C.
With `O=CC1CC=CCC1` (stereo not given) the boiling point was 105 °C and the melting point was 2 °C.
Work on `NC(N)=O.O=P(O)(O)O` yielded a melting point of 120 °C.
With `O[C@@H]1CCc2ccccc21` the boiling point was 220 °C and the melting point was 54.8 °C.
For `OCCBr`, the boiling point was 150 °C.
For `CCCCCCCCCC(=O)OC`, the boiling point was 224 °C, the log10 vapour pressure (mmHg) was -1.43 and the melting point was -18 °C.
With `ClCCCCCCCCCl` the boiling point was 241 °C and the ready biodegradability was “not readily biodegradable”.
Work on `Oc1cc(O)cc(-c2cc(O)cc(O)c2)c1` yielded a melting point of 310 °C.
`CC1=CC(=O)C=C(C)C1=O` gave a melting point of 72.5 °C.
With `CCC(C)CC(CC)CC` (stereo not given) the boiling point was 158 °C.
In the case of `[Se]=C=[Se]`, the boiling point is reported as 126 °C and the melting point is reported as -45.5 °C.
Work on `C/C=C\C(=O)OC1C[C@H]2O[C@@H]3C=C(C)C(=O)C[C@]3(C)[C@]1(C)C21CO1` (stereo not given in full) yielded a melting point of 118 °C.
`O=C(Oc1ccccc1C(=O)O)c1ccccc1O` showed a melting point of 147 °C.
With `C=C(CCC)CCC` the boiling point was 118 °C.
For `O=C(O)c1ccncc1C(=O)O`, the melting point was 256 °C.
In the case of `CC(C)OC(=O)CCCCC(=O)OC(C)C`, the melting point is reported as -1.1 °C.
`O=Cc1cc(Br)cc(Br)c1O` gave a melting point of 86 °C.
`CCCCCCCCCCCCCCCCCC(=O)OC(=O)CCCCCCCCCCCCCCCCC` gave a melting point of 72 °C.
Molecule `Clc1ccc(Br)c(Cl)c1` has a boiling point of 235 °C and a melting point of 26 °C.
Molecule `CCOP(=S)(OCC)Oc1cc(C)nc(C(C)C)n1` has a log10 Henry constant (atm·m³/mol) of -6.95, a log10 Koc (L/kg) of 2.75 and a log10 vapour pressure (mmHg) of -4.05. The ready biodegradability was “not readily biodegradable”.
In the case of `O=C(O)CCCCCCCCC(=O)O`, the log10 vapour pressure (mmHg) is reported as -7.26, the melting point is reported as 131 °C and the ready biodegradability is reported as “readily biodegradable”.
In the case of `O=C(C(Cl)Cl)N(CCO)Cc1ccc(Oc2ccc([N+](=O)[O-])cc2)cc1`, the melting point is reported as 136 °C.
Molecule `O=P([O-])([O-])O[C@@H]1[C@@H](O)[C@H](O)[C@@H](O)[C@H](O)[C@@H]1O` has a melting point of 195 °C.
Molecule `NNc1cc(Cl)ccc1Cl` has a melting point of 102 °C.
Work on `NC(=O)c1ccc([N+](=O)[O-])cc1` yielded a log10 Koc (L/kg) of 1.93 and a melting point of 200 °C.
In the case of `CC=C(C(=O)OC)C(=O)OC`, the ready biodegradability is reported as “readily biodegradable”.
Work on `FC(F)(F)Oc1ccccc1` yielded a boiling point of 102 °C and a melting point of -50 °C.
`C1CSCSC1` gave a melting point of 54 °C.
In the case of `CCCCCOC(=O)c1ccccc1C(=O)OCCCCC`, the boiling point is reported as 342 °C.

Same assay, conditions: fish
Work on `c1cc2c3c(cccc3c1)CC2` yielded a log10 BCF of 2.88.
In the case of `Cc1c(Cl)c(Cl)c(Cl)c(Cl)c1Cl`, the log10 BCF is reported as 3.83.
`COP(=S)(OC)Oc1cc(Cl)c(I)cc1Cl` gave a log10 BCF of 3.62 and a log10 biotransformation half-life (days) of 0.86.
`Clc1c(Cl)c(Cl)c(Cl)c(Cl)c1Cl` showed a log10 BCF of 4.33 and a log10 biotransformation half-life (days) of 2.44.
In the case of `CCOP(=S)(OCC)Oc1cc(C)nc(C(C)C)n1`, the log10 BCF is reported as 1.85 and the log10 biotransformation half-life (days) is reported as 0.07.
